According to publication PMC7725443 (Advanced healthcare materials, 2020):

Test system: OVSAHO cells
Assay: Cell viability of OVSAHO cells
Assay type: cell-based, human
Settings: 50 nM and 100 nM, 24 h

CC(C)C[C@H](NC(=O)[C@H](Cc1ccccc1)NC(=O)c1cnccn1)B(O)O [BTZ, bortezomib]
cell viability of OVSAHO cells treated with solely BTZ: cell compatible
